Source: US7169816B2, “4-bromo or 4-iodo phenylamino benzhydroxamic acid derivatives and their use as MEK inhibitors” (Warner-Lambert Company, priority 1997, dated 2007)
Where a name gives a salt, the structure may show the parent alone.

The compounds below were run against p45MEK (GST-MEK) (Homo sapiens, UniProt Q02750) (assay: Cascade assay for inhibitors of the MAP kinase pathway (in vitro)).
Type: biochemical
Method: Incorporation of ^32P into myelin basic protein (MBP) was assayed in the presence of a glutathione S-transferase fusion protein containing p44MAP kinase (GST-MAPK) and a glutathione S-transferase fusion protein containing p45MEK (GST-MEK). The assay solution contained 20 mM HEPES, pH 7.4, 10 mM MgCl2, 1 mM MnCl2, 1 mM EGTA, 50 μM [γ-^32P]ATP, 10 μg GST-MEK, 0.5 μg GST-MAPK and 40 μg MBP in a final volume of 100 μL. […] Compounds were assessed at 10 μM for ability to inhibit incorporation of ^32P.
To ascertain whether compounds were inhibiting GST-MEK or GST MAPK, two additional protocols were employed. In the first protocol, compounds were added to tubes containing GST-MEK, followed by addition of GST-MAPK, MBP and [γ-^32P]ATP. In the second protocol, compounds were added to tubes containing both GST-MEK and GST-MAPK, followed by MBP and [γ-^32P]ATP.

p45MEK (GST-MEK), sequence (Q02750 whole entry): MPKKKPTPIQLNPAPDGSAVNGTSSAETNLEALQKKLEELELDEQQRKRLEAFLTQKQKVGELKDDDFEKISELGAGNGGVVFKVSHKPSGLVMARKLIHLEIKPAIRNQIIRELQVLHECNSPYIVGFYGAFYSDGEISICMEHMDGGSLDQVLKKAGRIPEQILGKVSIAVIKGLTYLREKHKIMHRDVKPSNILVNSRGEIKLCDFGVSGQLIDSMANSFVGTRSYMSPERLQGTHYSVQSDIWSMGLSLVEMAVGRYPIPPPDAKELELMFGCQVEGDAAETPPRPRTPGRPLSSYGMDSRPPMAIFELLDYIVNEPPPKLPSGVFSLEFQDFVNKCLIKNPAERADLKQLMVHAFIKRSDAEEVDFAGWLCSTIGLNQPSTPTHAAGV

**Q.** Which IC50 does the source give for `O=C(NOCC1CC1)c1cc(Br)c(F)c(F)c1Nc1ccc(I)cc1Cl` [Example 96, 5-Bromo-2-(2-chloro-4-iodo-phenylamino)-N-cyclopropylmethoxy-3,4-difluoro-benzamide] here?
**A.** Its IC50 is < 10 nM.

**Q.** How did the IC50 turn out when `Cc1cc(I)ccc1Nc1cc(F)ccc1C(=O)NOCc1ccccc1` [Example 12, 4-Fluoro-2-(4-iodo-2-methyl-phenylamino)-N-phenylmethoxy-benzamide] was run?
**A.** The IC50 was 826 nM.

**Q.** With `Cc1cc(I)ccc1Nc1ccc(Cl)cc1C(=O)N(C)O` [Example 5, 5-Chloro-N-hydroxy-2-(4-iodo-2-methyl-phenylamino)-N-methyl-benzamide] as the compound, how does the IC50 read?
**A.** Its IC50 is 566 nM.

**Q.** `Cc1cc(Br)ccc1Nc1c(C(=O)NOCC#Cc2ccccc2)ccc(F)c1F` [Example 33, 3,4-Difluoro-2-(4-bromo-2-methyl-phenylamino)-N-(3-phenyl-prop-2-ynyloxy)-benzamide] was tested. Which IC50 did it give?
**A.** The IC50 was 374 nM.

**Q.** `CCONC(=O)c1ccc(F)c(F)c1Nc1ccc(I)cc1C` [Example 40, N-Ethoxy-3,4-difluoro-2-(4-iodo-2-methyl-phenylamino)-benzamide] was tested. Which IC50 did it give?
**A.** The IC50 was 28 nM.

**Q.** Which IC50 does the source give for `Cc1cc(I)ccc1Nc1c(C(=O)NOCC#Cc2ccccc2)ccc(F)c1F` [Example 32, 3,4-Difluoro-2-(4-iodo-2-methyl-phenylamino)-N-(3-phenyl-prop-2-ynyloxy)-benzamide] here?
**A.** Its IC50 is 17 nM.

**Q.** How did the IC50 turn out when `Cc1cc(F)ccc1Nc1cc(F)ccc1C(=O)NO` [Example 8, 4-Fluoro-N-hydroxy-2-(4-fluoro-2-methyl-phenylamino)-benzamide] was run?
**A.** Its IC50 is 7130 nM.

**Q.** How did the IC50 turn out when `Cc1cc(I)ccc1Nc1c(C(=O)NOCCN2CCCCC2)cc(Br)c(F)c1F` [Example 85, 3,4-Difluoro-5-bromo-2-(4-iodo-2-methyl-phenylamino)-N-(2-piperidin-1-yl-ethoxy)-benzamide] was run?
**A.** Its IC50 is 24 nM.

**Q.** With `CONC(=O)c1cc(Cl)ccc1Nc1ccc(I)cc1C` [Example 7, 5-Chloro-2-(4-iodo-2-methyl-phenylamino)-N-methoxybenzamide] as the compound, how does the IC50 read?
**A.** The IC50 was 221 nM.

**Q.** Which IC50 does the source give for `C#CCONC(=O)c1ccc(F)c(F)c1Nc1ccc(I)cc1C` [Example 71, 3,4-Difluoro-2-(4-iodo-2-methyl-phenylamino)-N-(prop-2-ynyloxy)-benzamide] here?
**A.** The IC50 was 15 nM.

**Q.** How did the IC50 turn out when `CCCONC(=O)c1ccc(F)cc1Nc1ccc(I)cc1C` [Example 42, 4-Fluoro-2-(4-iodo-2-methyl-phenylamino)-N-propoxy-benzamide] was run?
**A.** Its IC50 is 87 nM.

**Q.** How did the IC50 turn out when `CC(C#Cc1ccccc1)=CCONC(=O)c1ccc(F)c(F)c1Nc1ccc(Br)cc1C` [Example 39, 2-(4-Bromo-2-methyl-phenylamino)-3,4-difluoro-N-(3-methyl-5-phenyl-pent-2-en-4-ynyloxy)-benzamide] was run?
**A.** Its IC50 is 147 nM.

**Q.** With `Cc1cc(I)ccc1Nc1cc(F)ccc1C(=O)NOCc1ccoc1` [Example 20, 4-Fluoro-N-(furan-3-ylmethoxy)-2-(4-iodo-2-methyl-phenylamino)-benzamide] as the compound, how does the IC50 read?
**A.** The IC50 was 42 nM.

**Q.** How did the IC50 turn out when `C#CCCONC(=O)c1cc(Br)c(F)c(F)c1Nc1ccc(I)cc1C` [Example 31, 5-Bromo-N-(but-3-ynyloxy)-3,4-difluoro-2-(4-iodo-2-methyl-phenylamino)-benzamide] was run?
**A.** Its IC50 is 45 nM.

**Q.** Which IC50 does the source give for `Cc1cc(I)ccc1Nc1c(C(=O)NOCC2CC2)ccc(F)c1F` [Example 56, N-Cyclopropylmethoxy-3,4-difluoro-2-(4-iodo-2-methyl-phenylamino)-benzamide] here?
**A.** Its IC50 is 14 nM.

**Q.** For `Cc1ccccc1Nc1cc(F)ccc1C(=O)NO` [Example 9, 4-Fluoro-N-hydroxy-2-(2-methylphenylamino)-benzamide], which IC50 is on record?
**A.** Its IC50 is 409 nM.

**Q.** How did the IC50 turn out when `Cc1cc(I)ccc1Nc1ccc(Cl)cc1C(=O)NO` [Example 4, 5-Chloro-N-hydroxy-2-(4-iodo-2-methyl-phenylamino)-benzamide] was run?
**A.** Its IC50 is 23 nM.

**Q.** `C#CC(C)ONC(=O)c1ccc(F)c(F)c1Nc1ccc(Br)cc1C` (stereo not shown) [Example 28, 2-(4-Bromo-2-methyl-phenylamino)-3,4-difluoro-N-(1-methyl-prop-2-ynyloxy)-benzamide] was tested. Which IC50 did it give?
**A.** The IC50 was 728 nM.

**Q.** Which IC50 does the source give for `C=C(C)CONC(=O)c1ccc(F)c(F)c1Nc1ccc(I)cc1C` [Example 66, 3,4-Difluoro-2-(4-iodo-2-methyl-phenylamino)-N-(2-methyl-allyloxy)-benzamide] here?
**A.** The IC50 was 16 nM.

**Q.** For `Cc1cc(I)ccc1Nc1ccc(Cl)cc1C(=O)NOC1CCCCO1` (stereo not shown) [Example 6, 5-Chloro-2-(4-iodo-2-methyl-phenylamino)-N-(terahydropyran-2-yloxy)benzamide], which IC50 is on record?
**A.** The IC50 was 345 nM.

**Q.** For `C=C(C)CONC(=O)c1ccc(F)cc1Nc1ccc(I)cc1C` [Example 65, 4-Fluoro-2-(4-iodo-2-methyl-phenylamino)-N-(2-methyl-allyloxy)-benzamide], which IC50 is on record?
**A.** Its IC50 is 57 nM.

**Q.** Which IC50 does the source give for `Cc1cc(I)ccc1Nc1cc(F)ccc1C(=O)NOCC1CC1` [Example 55, N-Cyclopropylmethoxy-4-fluoro-2-(4-iodo-2-methyl-phenylamino)-benzamide] here?
**A.** Its IC50 is 47 nM.

**Q.** Which IC50 does the source give for `Cc1cc(I)ccc1Nc1c(C(=O)NOCc2ccoc2)cc(Br)c(F)c1F` [Example 23, 5-Bromo-3,4-difluoro-N-(furan-3-ylmethoxy)-2-(4-iodo-2-methyl-phenylamino)-benzamide] here?
**A.** The IC50 was 16 nM.

**Q.** With `Cc1cc(I)ccc1Nc1c(C(=O)NOCCN2CCOCC2)cc(Br)c(F)c1F` [Example 97, 5-Bromo-3,4-difluoro-2-(4-iodo-2-methyl-phenylamino)-N-(2-morpholin-4-yl-ethoxy)-benzamide] as the compound, how does the IC50 read?
**A.** The IC50 was 15 nM.

**Q.** `Cc1cc(Br)ccc1Nc1c(C(=O)NOCc2cccs2)ccc(F)c1F` [Example 64, 2-(4-Bromo-2-methyl-phenylamino)-3,4-difluoro-N-(thiophen-2-ylmethoxy)-benzamide] was tested. Which IC50 did it give?
**A.** Its IC50 is 279 nM.

**Q.** Which IC50 does the source give for `CCCONC(=O)c1ccc(F)c(F)c1Nc1ccc(I)cc1C` [Example 43, 3,4-Difluoro-2-(4-iodo-2-methyl-phenylamino)-N-propoxy-benzamide] here?
**A.** Its IC50 is 40 nM.

**Q.** `CCCONC(=O)c1ccc(F)c(F)c1Nc1ccc(Br)cc1C` [Example 44, 2-(4-Bromo-2-methyl-phenylamino)-3,4-difluoro-N-propoxy-benzamide] was tested. Which IC50 did it give?
**A.** Its IC50 is 475 nM.

**Q.** How did the IC50 turn out when `CCONC(=O)c1ccc(F)c(F)c1Nc1ccc(Br)cc1C` [Example 41, 2-(4-Bromo-2-methyl-phenylamino)-N-ethoxy-3,4-difluoro-benzamide] was run?
**A.** Its IC50 is 236 nM.

**Q.** With `O=C(NO)c1ccc(F)cc1Nc1ccc(I)cc1Cl` [Example 87, 2-(2-Chloro-4-iodo-phenylamino)-4-fluoro-N-hydroxy-benzamide (HCl salt)] as the compound, how does the IC50 read?
**A.** Its IC50 is < 1 nM.

**Q.** For `Cc1cc(I)ccc1Nc1cc(F)ccc1C(=O)NOCCOc1ccccc1` [Example 59, 4-Fluoro-2-(4-iodo-2-methyl-phenylamino)-N-(2-phenoxy-ethoxy)-benzamide], which IC50 is on record?
**A.** Its IC50 is 259 nM.

**Q.** With `Cc1cc(I)ccc1Nc1c(C(=O)NOCc2ccoc2)ccc(F)c1F` [Example 21, 3,4-Difluoro-N-(furan-3-ylmethoxy)-2-(4-iodo-2-methyl-phenylamino)-benzamide] as the compound, how does the IC50 read?
**A.** Its IC50 is 14 nM.

**Q.** `Cc1cc(I)ccc1Nc1c(C(=O)NOCC#Cc2ccccc2F)ccc(F)c1F` [Example 36, 3,4-Difluoro-N-[3-(2-fluoro-phenyl)-prop-2-ynyloxy]-2-(4-iodo-2-methyl-phenylamino)-benzamide] was tested. Which IC50 did it give?
**A.** The IC50 was 56 nM.

**Q.** With `C#CCONC(=O)c1ccc(F)cc1Nc1ccc(I)cc1C` [Example 25, 4-Fluoro-2-(4-iodo-2-methyl-phenylamino)-N-(prop-2-ynyloxy)-benzamide] as the compound, how does the IC50 read?
**A.** Its IC50 is 102 nM.

**Q.** Which IC50 does the source give for `Cc1cc(I)ccc1Nc1cc(F)ccc1C(=O)N(O)C(C)C` [Example 78, 4-Fluoro-N-hydroxy-2-(4-iodo-2-methyl-phenylamino)-N-isopropyl-benzamide] here?
**A.** Its IC50 is 80 nM.

**Q.** With `Cc1cc(I)ccc1Nc1c(C(=O)NOC(C)C)ccc(F)c1F` [Example 47, 3,4-Difluoro-2-(4-iodo-2-methyl-phenylamino)-N-isopropoxy-benzamide] as the compound, how does the IC50 read?
**A.** Its IC50 is 87 nM.

**Q.** `Cc1cc(I)ccc1Nc1c(C(=O)NOC(C)C)cc(Br)c(F)c1F` [Example 49, 5-Bromo-3,4-difluoro-2-(4-iodo-2-methyl-phenylamino)-N-isopropoxy-benzamide] was tested. Which IC50 did it give?
**A.** The IC50 was 85 nM.

**Q.** For `Cc1cc(I)ccc1Nc1c(C(=O)NOC2CCCCO2)cc(Br)c(F)c1F` (stereo not shown) [Example 86, 5-Bromo-3,4-difluoro-2-(4-iodo-2-methyl-phenylamino)-N-(tetrahydro-pyran-2-yloxy)-benzamide], which IC50 is on record?
**A.** The IC50 was 47 nM.

**Q.** For `Cc1cc(I)ccc1Nc1cc(F)ccc1C(=O)N(C)O` [Example 80, 4-Fluoro-N-hydroxy-2-(4-iodo-2-methyl-phenylamino)-N-methyl-benzamide], which IC50 is on record?
**A.** The IC50 was 80 nM.

**Q.** How did the IC50 turn out when `CC=CCONC(=O)c1ccc(F)c(F)c1Nc1ccc(I)cc1C` [Example 69, N-(But-2-enyloxy)-3,4-difluoro-2-(4-iodo-2-methyl-phenylamino)-benzamide] was run?
**A.** The IC50 was 16 nM.

**Q.** With `CCN(CC)CCONC(=O)c1cc(Br)c(F)c(F)c1Nc1ccc(I)cc1C` [Example 98, 5-Bromo-N-(2-diethylamino-ethoxy)-3,4-difluoro-(4-iodo-2-methyl-phenylamino)-benzamide] as the compound, how does the IC50 read?
**A.** The IC50 was 25 nM.

**Q.** How did the IC50 turn out when `Cc1cc(I)ccc1Nc1cc(F)c([N+](=O)[O-])cc1C(=O)NO` [Example 81, 4-Fluoro-N-hydroxy-2-(4-iodo-2-methyl-phenylamino)-5-nitro-benzamide] was run?
**A.** The IC50 was 17 nM.

**Q.** How did the IC50 turn out when `Cc1cc(I)ccc1Nc1c(C(=O)NOCC#Cc2cccc(F)c2)ccc(F)c1F` [Example 34, 3,4-Difluoro-N-[3-(3-fluoro-phenyl)-prop-2-ynyloxy]-2-(4-iodo-2-methyl-phenylamino)-benzamide] was run?
**A.** The IC50 was 113 nM.

**Q.** `Cc1cc(I)ccc1Nc1c(C(=O)NOCc2cccs2)ccc(F)c1F` [Example 63, 3,4-Difluoro-2-(4-iodo-2-methyl-phenylamino)-N-(thiophen-2-ylmethoxy)-benzamide] was tested. Which IC50 did it give?
**A.** Its IC50 is 19 nM.
